Patent US20260207450A1, “ANTI-DANDRUFF COMPOSITIONS” (Firmenich SA, priority 2022, published 2026)
≈ marks a conversion by molar mass, not a printed value.

Key:
[1] = system: M. restricta ATCC MYA-4611; assay: Disc-diffusion assay, perfumery materials in DMSO, M. restricta; type: cell-based, Malassezia restricta; details: Malassezia restricta, 144 h
Experimental: (§1) Anti-Malassezia effect of perfumery materials in solvent in DMSO was determined using disc-diffusion assay, based on the method of J Mycol Infect 2018: 23: 91-98. In brief, working cultures of Malassezia strains were prepared from −80 C stock culture on mDixon agar plate (for M. furfur DSM 6170) or mLN agar plate (for M. restricta ATCC MYA-4611 and M. globosa ATCC MYA-4612), and cells were suspended in 0.9% saline, and spread onto mDixon or mLN agar surface to prepare lawn plate. Test samples solutions are prepared in DMSO to final concentrations of 0.2%, 1% or 2%. Discs (Whatman, 6 mm in diameter) were placed on inoculated agar plates with each Malassezia strains respectively, including M. furfur DSM 6170, M. restricta ATCC MYA-4611, and M. globosa ATCC MYA-4612. Aliquots (20 μL) of each sample solution was added to each disc. Agar plates were incubated at 30° C. for 3 days for M. furfur DSM 6170, and 6 days for M. restricta ATCC MYA-4611, and M. globosa ATCC MYA-4612. After incubation, diameters of the clear inhibition zones around the discs were measured. Inhibition zone greater than 6 mm are regarded as having anti-Malassezia effect.

[2] = system: Staphylococcus aureus ATCC 6538; assay: MIC assay on Staphylococcus aureus ATCC 6538; type: cell-based; details: Staphylococcus aureus, ATCC6538; TSB, 37° C., 24 h aerobically; dilutions 29 to 10000 ppm; read-out: MIC (ppm) S. aureus
Experimental: MIC assay for Staphylococcus aureus ATCC 6538 is based on Clinical Laboratory Standard Institute: CLSI/NCCLS M07-A8. Cell suspension of working cultures of S. aureus was prepared following the instructions of culture provider ATCC, USA.
(§2) A total of 26 perfumery materials were examined for an inhibition effect on Malassezia furfur and Staphylococcus aureus.

[3] = system: M. restricta; assay: Disc-diffusion assay, additional perfumery materials in DMSO, M. restricta, 4 days; type: cell-based, Malassezia restricta; details: Malassezia restricta, 96 h; Table 20; 0.5% in DMSO, 4 days; read-out: Inhibition zone diameter (mm) on M. restricta
Experimental: (§3) Anti-Malassezia effect of additional perfumery materials in DMSO was determined using disc-diffusion assay as described previously. Test samples solutions were prepared in DMSO to final concentrations of 0.5%, 1% or 2%. Discs (Whatman, 6 mm in diameter) were placed on inoculated agar plates. Aliquots (20 μL) of each sample solution was added to each disc. Agar plates were incubated at 30° C. for 4 days. After incubation, diameters of the clear inhibition zones around the discs were recorded
as §3, with “above.” for “previously.”, “recorded.” for “recorded”
Anti-Malassezia effect of additional perfumery materials in solvent in DMSO was determined using disc-diffusion assay, as described previously. Test samples solutions are prepared in DMSO to final concentrations of 0.5%. Discs (Whatman, 6 mm in diameter) were placed on inoculated agar plates. Aliquots (20 μL) of each sample solution was added to each disc. Agar plates were incubated at 30° C. for 4 days. After incubation, diameters of the clear inhibition zones around the discs were measured.

[4] = system: M. globosa ATCC MYA-4612; assay: Disc-diffusion assay, perfumery materials in DMSO, M. globosa; type: cell-based, Malassezia globosa; details: Malassezia globosa, 144 h
Experimental: as §1

[5] = system: Malassezia furfur DSM 6170; assay: MIC assay on Malassezia furfur DSM 6170 (resazurin); type: cell-based; details: Malassezia furfur, DSM6170; 30° C., 48 h aerobically; dilutions 29 to 10000 ppm
Experimental: The MIC assay for Malassezia furfur DSM 6170 was modified based on the method in Journal of Clinical Microbiology 2017, Vol 55: 1883-1893. In brief, working culture was prepared from stock cultures stored at −80° C. to obtain a cell suspension as the inoculum. Serial dilutions of samples, 29 to 10000 ppm, were tested to determine the MIC values for growth of Malassezia furfur DSM 6170 after at 30° C. for 48 h aerobically. Resazurin was used as growth indicator.
as §2

[6] = system: M. furfur DSM 6170; assay: Disc-diffusion assay, perfumery materials in DMSO, M. furfur; type: cell-based, Malassezia furfur; details: Malassezia furfur, DSM6170, 72 h
Experimental: as §1

[7] = system: M. restricta; assay: Disc-diffusion assay, combinations with piroctone olamine (PO) in DMSO, M. restricta; type: cell-based, Malassezia restricta; details: 4 days, ratio greater than 1.0 = boosting effect
Experimental: Anti-Malassezia effect of combinations of PO and perfumery materials in solvent DMSO against M. restricta was determined using disc-diffusion assay as described above. Aliquots (20 μL) of each sample solution was added to each disc. Agar plates were incubated at 30° C. for 4 days. After incubation, diameters of the clear inhibition zones around the discs were measured. Ratio of inhibition zone diameter of each combination to that of PO only were calculated. […] Anti-Malassezia effect of combinations of PO and perfumery raw materials mixtures in solvent DMSO was determined using disc-diffusion assay, as described above. Aliquots (20 μL) of each sample solution was added to each disc. Agar plates were incubated at 30° C. for 4 days. After incubation, diameters of the clear inhibition zones around the discs were measured. Ratio of inhibition zone diameter of each combination to that of PO only were calculated.

Row | Compound | MIC [2] [µg/mL] | MIC [5] [µg/mL] | zone of inhibition at 1 % [1] [mm] | zone of inhibition at 0.5 % [3] [mm] | zone of inhibition at 1 % [4] [mm] | zone of inhibition at 2 % [6] [mm] | zone of inhibition at 0.2 % [4] [mm] | zone of inhibition at 0.2 % [1] [mm] | Ratio of inhibition zone diameter (0.5% PRM + 0.1% PO) to 0.1% PO [7] | Ratio of inhibition zone diameter (1% PRM + 0.35% PO) to 0.35% PO [7] | zone of inhibition at 2 % [1] [mm] | zone of inhibition at 2 % [4] [mm]
1 | CC(C=O)Cc1ccc(C(C)C)cc1 (racemic) [cyclamen aldehyde, (+/−)-3-(4-isopropylphenyl)-2-methylpropanal] | 933 (≈ 4900 µM) |  | 8.2 | 7.5 | 6.7 |  |  |  |  |  |  | 
2 | CCOC(=O)C(C)CC (racemic) [ethyl 2-methyl butanoate, (+/−)-ethyl 2-methylbutanoate] |  |  |  |  | 6.6 |  |  |  |  |  |  | 
3 | CC(C)c1cccc(C(C)CC=O)c1 (racemic) [floral butanal, (+/−)-3-(3-isopropylphenyl)butanal] | 387 (≈ 2030 µM) | 1300 (≈ 6830 µM) | 8.2 | 7.5 |  |  |  |  |  |  |  | 
4 | COc1ccc(CC(C)C=O)cc1 (racemic) [para-anisyl propanal, (+/−)-3-(4-methoxyphenyl)-2-methylpropanal] | 530 (≈ 2970 µM) | 222 (≈ 1250 µM) | 14.3 |  | 11.6 |  |  | 6.6 | 2.0 | 1.5 |  | 
5 | CCCCC(CC)CO (stereo not shown) [2-ethyl-1-hexanol] | 867 (≈ 6660 µM) | 44 (≈ 338 µM) | 6.4 |  | 6.7 | 7.6 |  |  |  |  |  | 
6 | CCCCCc1cc(C)ccn1 [4-methyl-2-pentylpyridine] | 693 (≈ 4240 µM) | 222 (≈ 1360 µM) |  |  |  | 6.7 | 6.7 | 6.6 |  |  |  | 
7 | CCCCCCCCCCO [Mix 1-decanol, 1-decanol] | 370 (≈ 2340 µM) | 500 (≈ 3160 µM) | 10 |  | 15.9 |  | 6.7 | 8.5 |  |  | 25 | 16.4

Further compounds by falling MIC [2], results first:

Row | MIC [2] [µg/mL] | MIC [5] [µg/mL] | Compound | zone of inhibition at 1 % [1] [mm] | zone of inhibition at 0.5 % [3] [mm] | zone of inhibition at 1 % [4] [mm] | zone of inhibition at 2 % [6] [mm] | zone of inhibition at 0.2 % [4] [mm] | zone of inhibition at 0.2 % [1] [mm] | Ratio of inhibition zone diameter (0.5% PRM + 0.1% PO) to 0.1% PO [7] | Ratio of inhibition zone diameter (1% PRM + 0.35% PO) to 0.35% PO [7] | zone of inhibition at 2 % [1] [mm] | zone of inhibition at 2 % [4] [mm]
8 | 330 (≈ 1460 µM) | 222 (≈ 981 µM) | CCCCC[C@H]1C(=O)CC[C@@H]1CC(=O)OC (racemic) [methyl dihydrojasmonate, methyl 2-((1 RS,2RS)-3-oxo-2-pentylcyclopentyl)acetate] |  |  |  |  |  | 6.1 |  |  |  | 
9 | 325 (≈ 1590 µM) |  | CC(C=O)Cc1ccc(C(C)(C)C)cc1 (racemic) [lilial, (+/−)-2-methyl-3-[4-(2-methyl-2-propanyl)phenyl]propanal] |  |  | 7.4 |  |  |  |  |  |  | 
10 | 173 (≈ 872 µM) | 148 (≈ 746 µM) | CCCCCCCCC1CCC(=O)O1 (racemic) [gamma-dodecalactone, (+/−)-5-octyldihydro-2(3h)-furanone] |  |  |  | 6.9 | 6.3 |  |  |  |  | 
11 | 75 (≈ 398 µM) | 333 (≈ 1770 µM) | C/C(=C\c1ccc(C)cc1)CCC=O [(4E)-4-methyl-5-(4-methylphenyl)-4-pentenal] | 11.6 |  | 9 | 7.5 |  | 6.8 | 1.2 |  | 12 | 10.5
12 | 49 (≈ 269 µM) | 148 (≈ 812 µM) | CCCCCCCCC/C=C/C=O [(2E)-2-dodecenal] | 14.4 |  | 15.2 | 12.6 |  | 10 | 2.1 | 1.2 | 18.1 | 17.9
13 | 22 (≈ 118 µM) |  | CCCCCCCCCCCCO [Mix 1-dodecanol, 1-dodecanol] | 11.5 |  | 10.2 |  | 8.7 | 6.8 |  |  |  | 
